Laboratory results reported in ChEMBL document CHEMBL3227984, “5-Substituted uracil arabinonucleosides as potential antiviral agents” (J Med Chem, 1979).
Calls of active or inactive are those of the source. The rule behind the calls is not given here.

test system: Vaccinia virus; test: Antiviral activity against Vaccinia virus infected in human skin fibroblasts assessed as inhibition of virus-induced cytopathogenicity; assay type: functional, organism-based; details: Orthopoxvirus vaccinia

Row | SMILES | inhibition
1 | O=c1ccn([C@@H]2O[C@H](CO)[C@@H](O)[C@@H]2O)c(=O)[nH]1 [ARAURIDINE] | Active
2 | N#Cc1cn([C@@H]2O[C@H](CO)[C@@H](O)[C@@H]2O)c(=O)[nH]c1=O | Active
3 | Cc1cn([C@@H]2O[C@H](CO)[C@@H](O)[C@@H]2O)c(=O)[nH]c1=O | Active
4 | O=c1[nH]c(=O)n([C@@H]2O[C@H](CO)[C@@H](O)[C@@H]2O)cc1O | Active
5 | O=c1[nH]c(=O)n([C@@H]2O[C@H](CO)[C@@H](O)[C@@H]2O)cc1[N+](=O)[O-] | Active
